Assay results published in US20260265252A1, “SOLID STATE FORMS OF IMIPRIDONE DERIVATIVE” (CHIMERIX, INC., priority 2024, published 2026).
Where a name gives a salt, the structure may show the parent alone.

Experiment: ICH-compliant stability study of ONC206-HCl Drug Substance (appearance, XRPD form, HPLC assay, purity/impurities, water content, particle size, microbial)
Assay type: physicochemical
Design: key to Each unidentified impurity (NMT 0.5% area) / Appearance (White to off-white solid) / Polymorphic form (XRPD) (Consistent with form 2 reference diffractogram): C = Conforms; A = Absence
Description: The purpose of the ICH-compliant stability study was to evaluate the performance to specifications of ONC206-HCl Drug Substance under specified container closure configuration, storage conditions, and intervals.
The study was performed according to ICH Q1A(R2) and QlE Guidance documents. […]
The Container Closure Systems were: • Primary container: LDPE bag, 4×8 inches (Source: Nexus—64378); bag closure PE 180 nm (Source: Entourage), • Secondary container: LDPE bag, 4×8 inches (Source: Nexus—64378); bag closure PE 180 nm (Source: Entourage), • Tertiary container: Heat-sealed foil bag, 15×30 (Source: SERCALIA S.L.—10234), and • Outer container: Plastic drum, 6 L (Source: Curtec, HDPE ref 54021) or Plastic drum, 3.6 L (Source: Curtec).

[1] = 30 ± 2° C./65% ± 5% RH intermediate conditions, 9 months
[2] = 30 ± 2° C./65% ± 5% RH intermediate conditions, 12 months
[3] = 40 ± 2° C./75% ± 5% RH accelerated conditions, 0 months
[4] = 40 ± 2° C./75% ± 5% RH accelerated conditions, 3 months
[5] = 40 ± 2° C./75% ± 5% RH accelerated conditions, 6 months
[6] = at all conditions, over the course of the study

Particle Size (Malvern) D10 (Report result μm) [1]: 30.5 μm | Particle Size (Malvern) D50 (Report result μm) [1]: 93.2 μm | Particle Size (Malvern) D90 (Report result μm) [1]: 197.0 μm | Polymorphic form (XRPD) (Consistent with form 2 reference diffractogram) [1]: C | Purity by HPLC (NLT 98.0% area) [1]: 100.0 % area | Total impurities (NMT 2.0% area) [1]: 0.00 % area | Water Content by Kf (Report result % w/w) [1]: 9.3 % w/w | Appearance (White to off-white solid) [2]: C | Assay by HPLC-UV (Anhydrous & Solvent Free basis) 97.0-103.0% w/w [2]: 100.0 % w/w | Each unidentified impurity (NMT 0.5% area) [2]: C | Particle Size (Malvern) D10 (Report result μm) [2]: 29.7 μm | Particle Size (Malvern) D50 (Report result μm) [2]: 93.7 μm | Particle Size (Malvern) D90 (Report result μm) [2]: 203.0 μm | Polymorphic form (XRPD) (Consistent with form 2 reference diffractogram) [2]: C | Purity by HPLC (NLT 98.0% area) [2]: 100.0 % area | Total impurities (NMT 2.0% area) [2]: 0.00 % area | Water Content by Kf (Report result % w/w) [2]: 9.3 % w/w | period over which stability is confirmed (40° C. (Table 40), 75% RH accelerated conditions): 6 months | Appearance (White to off-white solid) [3]: C | Assay by HPLC-UV (Anhydrous & Solvent Free basis) 97.0-103.0% w/w [3]: 101.6 % w/w | Each unidentified impurity (NMT 0.5% area) [3]: C | Particle Size (Malvern) D10 (Report result μm) [3]: 28.2 μm | Particle Size (Malvern) D50 (Report result μm) [3]: 91.4 μm | Particle Size (Malvern) D90 (Report result μm) [3]: 201.3 μm | Polymorphic form (XRPD) (Consistent with form 2 reference diffractogram) [3]: C | Purity by HPLC (NLT 98.0% area) [3]: 100.0 % area | Total impurities (NMT 2.0% area) [3]: 0.00 % area | Water Content by Kf (Report result % w/w) [3]: 9.3 % w/w | Appearance (White to off-white solid) [4]: C | Assay by HPLC-UV (Anhydrous & Solvent Free basis) 97.0-103.0% w/w [4]: 100.1 % w/w | Each unidentified impurity (NMT 0.5% area) [4]: C | Particle Size (Malvern) D10 (Report result μm) [4]: 28.1 μm | Particle Size (Malvern) D50 (Report result μm) [4]: 91.5 μm | Particle Size (Malvern) D90 (Report result μm) [4]: 199.0 μm | Polymorphic form (XRPD) (Consistent with form 2 reference diffractogram) [4]: C | Purity by HPLC (NLT 98.0% area) [4]: 100.0 % area | Total impurities (NMT 2.0% area) [4]: 0.00 % area | Water Content by Kf (Report result % w/w) [4]: 9.5 % w/w | Each unidentified impurity (Report RRT and % area for peaks ≥0.10% area) (40 ± 2° C./75% ± 5% RH accelerated conditions, 3 months, peak RRT 1.30): 0.10% aire | Appearance (White to off-white solid) [5]: C | Assay by HPLC-UV (Anhydrous & Solvent Free basis) 97.0-103.0% w/w [5]: 100.2 % w/w | Each unidentified impurity (NMT 0.5% area) [5]: C | Particle Size (Malvern) D10 (Report result μm) [5]: 29.2 μm | Particle Size (Malvern) D50 (Report result μm) [5]: 92.6 μm | Particle Size (Malvern) D90 (Report result μm) [5]: 201.0 μm | Polymorphic form (XRPD) (Consistent with form 2 reference diffractogram) [5]: C | Purity by HPLC (NLT 98.0% area) [5]: 100.0 % area | Total impurities (NMT 2.0% area) [5]: 0.00 % area | Water Content by Kf (Report result % w/w) [5]: 9.5 % w/w | Particle Size (D10, D50 and D90) [6]: no significant evolution | Polymorphic form (XRPD) [6]: no significant change | Purity and total impurities [6]: no significant evolution | Water Content [6]: no significant evolution | appearance [6]: no significant change | Assay HPLC (over the course of the study): no significant evolution | microbial results (over the course of the study): in specifications | period over which stability is confirmed (−20° C. (Table 41)): 12 months | Appearance (White to off-white solid) (−20° C., 0 months): C | Assay by HPLC-UV (Anhydrous & Solvent Free basis) 97.0-103.0% w/w (−20° C., 0 months): 101.6 % w/w | Each unidentified impurity (NMT 0.5% area) (−20° C., 0 months): C | Particle Size (Malvern) D50 (Report result μm) (−20° C., 0 months): 91.4 μm | Particle Size (Malvern) D90 (Report result μm) (−20° C., 0 months): 201.3 μm | Particle Size (Malvern) Dl0 (Report result μm) (−20° C., 0 months): 28.2 μm | Polymorphic form (XRPD) (Consistent with form 2 reference diffractogram) (−20° C., 0 months): C | Purity by HPLC (NLT 98.0% area) (−20° C., 0 months): 100.0 % area | Total impurities (NMT 2.0% area) (−20° C., 0 months): 0.00 % area | Water Content by Kf (Report result % w/w) (−20° C., 0 months): 9.3 % w/w | Appearance (White to off-white solid) (−20° C., 1 months): C | Assay by HPLC-UV (Anhydrous & Solvent Free basis) 97.0-103.0% w/w (−20° C., 1 months): 101.5 % w/w | Each unidentified impurity (NMT 0.5% area) (−20° C., 1 months): C | Particle Size (Malvern) D50 (Report result μm) (−20° C., 1 months): 89.5 μm | Particle Size (Malvern) D90 (Report result μm) (−20° C., 1 months): 193.0 μm | Particle Size (Malvern) Dl0 (Report result μm) (−20° C., 1 months): 27.5 μm | Polymorphic form (XRPD) (Consistent with form 2 reference diffractogram) (−20° C., 1 months): C | Purity by HPLC (NLT 98.0% area) (−20° C., 1 months): 100.0 % area | Total impurities (NMT 2.0% area) (−20° C., 1 months): 0.00 % area | Water Content by Kf (Report result % w/w) (−20° C., 1 months): 9.3 % w/w | Appearance (White to off-white solid) (−20° C., 2 months): C | Assay by HPLC-UV (Anhydrous & Solvent Free basis) 97.0-103.0% w/w (−20° C., 2 months): 100.2 % w/w | Each unidentified impurity (NMT 0.5% area) (−20° C., 2 months): C | Particle Size (Malvern) D50 (Report result μm) (−20° C., 2 months): 90.6 μm | Particle Size (Malvern) D90 (Report result μm) (−20° C., 2 months): 189.0 μm | Particle Size (Malvern) Dl0 (Report result μm) (−20° C., 2 months): 28.8 μm | Polymorphic form (XRPD) (Consistent with form 2 reference diffractogram) (−20° C., 2 months): C | Purity by HPLC (NLT 98.0% area) (−20° C., 2 months): 100.0 % area | Total impurities (NMT 2.0% area) (−20° C., 2 months): 0.00 % area | Water Content by Kf (Report result % w/w) (−20° C., 2 months): 9.4 % w/w | Appearance (White to off-white solid) (−20° C., 3 months): C | Assay by HPLC-UV (Anhydrous & Solvent Free basis) 97.0-103.0% w/w (−20° C., 3 months): 100.0 % w/w | Each unidentified impurity (NMT 0.5% area) (−20° C., 3 months): C | Particle Size (Malvern) D50 (Report result μm) (−20° C., 3 months): 89.4 μm | Particle Size (Malvern) D90 (Report result μm) (−20° C., 3 months): 195.0 μm | Particle Size (Malvern) Dl0 (Report result μm) (−20° C., 3 months): 27.2 μm | Polymorphic form (XRPD) (Consistent with form 2 reference diffractogram) (−20° C., 3 months): C | Purity by HPLC (NLT 98.0% area) (−20° C., 3 months): 100.0 % area | Total impurities (NMT 2.0% area) (−20° C., 3 months): 0.00 % area | Water Content by Kf (Report result % w/w) (−20° C., 3 months): 9.5 % w/w | Appearance (White to off-white solid) (−20° C., 6 months): C | Assay by HPLC-UV (Anhydrous & Solvent Free basis) 97.0-103.0% w/w (−20° C., 6 months): 100.1 % w/w | Each unidentified impurity (NMT 0.5% area) (−20° C., 6 months): C | Particle Size (Malvern) D50 (Report result μm) (−20° C., 6 months): 89.0 μm | Particle Size (Malvern) D90 (Report result μm) (−20° C., 6 months): 192.0 μm | Particle Size (Malvern) Dl0 (Report result μm) (−20° C., 6 months): 27.5 μm | Polymorphic form (XRPD) (Consistent with form 2 reference diffractogram) (−20° C., 6 months): C | Purity by HPLC (NLT 98.0% area) (−20° C., 6 months): 100.0 % area | Total impurities (NMT 2.0% area) (−20° C., 6 months): 0.00 % area | Water Content by Kf (Report result % w/w) (−20° C., 6 months): 9.3 % w/w | Appearance (White to off-white solid) (−20° C., 9 months): C | Assay by HPLC-UV (Anhydrous & Solvent Free basis) 97.0-103.0% w/w (−20° C., 9 months): 100.4 % w/w | Each unidentified impurity (NMT 0.5% area) (−20° C., 9 months): C | Particle Size (Malvern) D50 (Report result μm) (−20° C., 9 months): 91.8 μm | Particle Size (Malvern) D90 (Report result μm) (−20° C., 9 months): 196.0 μm | Particle Size (Malvern) Dl0 (Report result μm) (−20° C., 9 months): 29.5 μm | Polymorphic form (XRPD) (Consistent with form 2 reference diffractogram) (−20° C., 9 months): C | Purity by HPLC (NLT 98.0% area) (−20° C., 9 months): 100.0 % area | Total impurities (NMT 2.0% area) (−20° C., 9 months): 0.00 % area | Water Content by Kf (Report result % w/w) (−20° C., 9 months): 9.3 % w/w | Appearance (White to off-white solid) (−20° C., 12 months): C | Assay by HPLC-UV (Anhydrous & Solvent Free basis) 97.0-103.0% w/w (−20° C., 12 months): 99.9 % w/w | Each unidentified impurity (NMT 0.5% area) (−20° C., 12 months): C | Particle Size (Malvern) D50 (Report result μm) (−20° C., 12 months): 92.2 μm | Particle Size (Malvern) D90 (Report result μm) (−20° C., 12 months): 201.0 μm | Particle Size (Malvern) Dl0 (Report result μm) (−20° C., 12 months): 28.7 μm | Polymorphic form (XRPD) (Consistent with form 2 reference diffractogram) (−20° C., 12 months): C | Purity by HPLC (NLT 98.0% area) (−20° C., 12 months): 100.0 % area | Total impurities (NMT 2.0% area) (−20° C., 12 months): 0.00 % area | Water Content by Kf (Report result % w/w) (−20° C., 12 months): 9.2 % w/w
SMILES: O=C1C2=C(CCN(Cc3ccccc3)C2)N2CCN=C2N1Cc1ccc(F)cc1F [ONC206-HCl, 7-benzyl-4-(2,4-difluorobenzyl)-2,4,6,7,8,9-hexahydroimidazo[1,2-a]pyrido[3,4-e]pyrimidin-5(1H)-one]
